How the values were obtained:
[1] = system: Triploid Arabidopsis thaliana (Col-0) embryos; test: in vitro embryo rescue of interploidy hybridization (Col 2x x Col 4x), embryo survival; type: cell-based; conditions: for embryo appearance and growth: MS medium supplemented with the sugar, majority of triploid embryos (FIGS. 1C-1H)
Experimental: (§1) Seeds of Arabidopsis and Capsella were surface sterilized (5% sodium hypochlorite, 0.05% Triton X-100) for 10 min, washed three times in sterile ddH2O and then plated on half Murashige and Skoog (MS) medium, i.e., MS medium as defined below but half the concentration of the included ingredients. After stratification for 3 day at 4° C., plants were grown in a growth room under long-day photoperiod (16 hours light and 8 hours darkness) at 22° C. Eight-day-old seedlings were transferred to soil and plants were grown in a growth room at 60% humidity and daily cycles of 16 hours light at 22° C. and 8 hours darkness at 18° C. For crosses, designated female flower buds were emasculated, and the pistils hand-pollinated at 2 days after emasculation.
(§2) • 70% Ethanol; • Sterilizing solution (5% sodium hypochlorite+0.01% (v/v) of Triton X-100 or TWEEN® 20); • Autoclaved water; • Murashige & Skoog (MS) medium (Murashige and Skoog 1962): MS basal salt mixture 4.4 g/L, 0.7% plant agar, pH 5.8 and vitamins (glycine 2 mg/I, myo-inositol 100 mg/I, nicotinic acid 0.5 mg/I, pyridoxine HCl 0.5 mg/I and thiamine HCl 0.1 mg/I); • Nitsch medium (Nitsch & Nitsch 1969): basal salt mixture 2.1 g/L, 0.7% plant agar, pH 5.8 and vitamins (biotin 0.05 mg/I, folic acid 0.5 mg/I, glycine 2 mg/I, myo-inositol 100 mg/I, nicotinic acid 5 mg/I, pyridoxine HCl 0.5 mg/I and thiamine HCl 0.5 mg/I);
(§3) Triploid Arabidopsis seeds were derived from crossing diploid Arabidopsis females with tetraploid Arabidopsis pollen donors. Interspecific hybrid Capsella seeds were derived from crossing Capsella rubella females with Capsella grandiflora pollen donors. Hybrid embryos were isolated at the torpedo stage, at around 8 to 9 days after pollination (DAP) for Arabidopsis and 9 to 10 DAP for Capsella.
Under a sterile hood, the siliques of the crosses were incubated for 30 s in 70% ethanol, 30 s in sterilizing solution and 30 s in sterile water. […] Under a dissection microscope, the silique was opened with fine needles, and all seeds were transferred on the wet filter paper. The embryos were gently dissected and placed on the filter paper. During the dissection, the embryos and seeds should not become desiccated. The plates were sealed with Millipore tape and incubated under long-day photoperiod (16 hours light and 8 hours darkness) at 22° C.
After 5-7 days culture on MS medium with trehalose for Arabidopsis or 7-10 days for Capsella, viable embryos could be recognized by their green color and increased size that corresponded to the size of embryos at the bent cotyledon stage (FIG. 1J). Viable embryos were then transferred to Nitsch medium containing lower concentrations of trehalose, 1.5% (w/v) for Arabidopsis, 3% (w/v) for Capsella. Embryos were transferred from MS medium to Nitsch medium after two weeks. Transfer to Nitsch medium reduced vitrification, which is a frequently occurring phenomenon in tissue-cultured plants causing excessive hydration of tissues and reducing survival rate. Continued growth on MS medium for 3 weeks caused vitrification in Arabidopsis and Capsella seedlings (FIGS. 1L, 2I), but this phenomenon was suppressed by transfer to Nitsch medium (FIGS. 1M, 2J). After about two weeks of incubation, the initiation of roots could be observed (FIG. 1K) and the plantlets could be transferred to soil and continued to grow under long-day photoperiod (16 h light/8 h dark) at 22° C. in a growth room. […]

[2] = system: Hybrid embryos of Capsella (Capsella rubella×Capsella grandiflora); test: in vitro embryo rescue of interspecies hybrids, embryo survival; type: cell-based; conditions: for effect on embryo survival: MS medium supplemented with the sugar (FIG. 2A); for embryo appearance and growth: MS medium supplemented with the sugar, majority of embryos (FIGS. 2C-2H)
Experimental: as §1, §2, §3
Under a sterile hood, the siliques of the crosses were incubated for 30 s in 70% ethanol, 30 s in sterilizing solution and 30 s in sterile water. The siliques were placed on MS medium supplemented with 3% (w/v) trehalose overlaid with a filter paper and several drops of sterile liquid MS medium were added on the silique. Under a dissection microscope, the silique was opened with fine needles, and all seeds were transferred on the wet filter paper. The embryos were gently dissected and placed on the filter paper. During the dissection, the embryos and seeds should not become desiccated. The plates were sealed with Millipore tape and incubated under long-day photoperiod (16 hours light and 8 hours darkness) at 22° C.
After 5-7 days culture on MS medium with trehalose for Arabidopsis or 7-10 days for Capsella, viable embryos could be recognized by their green color and increased size that corresponded to the size of embryos at the bent cotyledon stage (FIG. 1J). Viable embryos were then transferred to Nitsch medium containing lower concentrations of trehalose, 1.5% (w/v) for Arabidopsis, 3% (w/v) for Capsella. Embryos were transferred from MS medium to Nitsch medium after two weeks. Transfer to Nitsch medium reduced vitrification, which is a frequently occurring phenomenon in tissue-cultured plants causing excessive hydration of tissues and reducing survival rate. Continued growth on MS medium for 3 weeks caused vitrification in Arabidopsis and Capsella seedlings (FIGS. 1L, 2I), but this phenomenon was suppressed by transfer to Nitsch medium (FIGS. 1M, 2J). After about two weeks of incubation, the initiation of roots could be observed (FIG. 1K) and the plantlets could be transferred to soil and continued to grow under long-day photoperiod (16 h light/8 h dark) at 22° C. in a growth room.
To rescue interspecific hybrids of Capsella, the protocol was the same as above for A. thaliana but with minor changes for the trehalose concentration. Hybrid embryos of Capsella (Capsella rubella×Capsella grandiflora) were dissected at the torpedo stage under a stereomicroscope under sterile conditions on a laminar flow bench. […]

[3] = system: rice triploid embryos; test: rescue of triploid rice embryos, embryo survival; type: cell-based, Oryza sativa L. cv. Suitou nourin 8
Experimental: To obtain triploids of cultivated rice (Oryza sativa L. cv. Suitou nourin 8), diploid plants (JP9838) were emasculated and pollinated with pollen from tetraploid plants (JP7525). Triploid hybrid embryos were dissected under sterile conditions at 10-12 days after pollination (DAP) under a stereomicroscope. The isolated embryos were cultured in vitro on MS medium supplemented with 1.5% (w/v, 43.8 mM) trehalose together with sucrose (1.5%) and compared to MS medium supplemented with only sucrose (3%). […] The viable triploid embryos were transferred to MS medium containing lower concentrations of trehalose (0.75% w/v) together with 2.25% (w/v) sucrose for two weeks, until the initiation of roots could be observed (FIG. 3F). The plantlets were transferred to soil and their ploidy levels were validated by flow cytometry.
Cultivated rice (Oryza sativa L. cv. Suitou nourin 8, diploid, JP9838, and cv. Suitou nourin 8, tetraploid, JP7525) seeds were obtained from the National Institute of Agrobiological Sciences in Japan (http://www.gene.affrc.go.jp). Rice seeds were grown on soil and cultivated in a phytotron. Cultivating conditions were 14 h light and 10 h dark at 30° C./21° C. with a constant humidity of 80% and light intensity of 400 μmol per m^−2 s^−1. For crossing, designated diploid plants were emasculated and pollination was performed immediately after emasculation.
Under a sterile hood, immature triploid rice seeds at 10-12 DAP were dehusked using a pair of tweezers and sterilized for 2 min in 70% ethanol, followed by 15 min in 5% sodium hypochlorite with gentle mixing, 2 min in sterile water. The seeds were placed on MS medium supplemented with 1.5% (w/v) trehalose together with 1.5% (w/v) sucrose overlaid with a filter paper. Under a dissection microscope, the seed coat was removed with fine needles, and dissected embryos were transferred on the wet filter paper. During the dissection, the embryos should not become desiccated. The plates were sealed with Millipore tape and incubated under long-day photoperiod (16 hours light and 8 hours darkness) at 22° C. After 5-7 days of culture on MS medium with trehalose, viable embryos could be recognized by their light green color and increased size (FIG. 3E), compared to aborted embryos with dark brown color (FIG. 3D). Viable embryos were then transferred to MS medium containing lower concentrations of trehalose, 0.75% (w/v) together with 2.25% (w/v) sucrose. After about two weeks of incubation, the initiation of roots could be observed (FIG. 3F) and the plantlets could be transferred to soil and grows in a phytotron.

[4] = MS medium with only sucrose (3%)

SMILES | embryo appearance and growth [1] | effect on embryo survival [2] | embryo appearance and growth [2] | embryo appearance and growth [3, 4] | embryos survived [3, 4] | embryo survival rate ([1]; MS medium supplemented with 3% (w/v) sugar, embryos at torpedo stage, 14 days of in vitro culture (FIG. 1A)) | highest survival rate ([1]; plates containing 2% (w/v) trehalose, 14 days (FIG. 1B)) | hybrid embryos rescued (survival rate) ([2]; MS medium supplemented with 3% (w/v) sugar, 14 days (FIG. 2A)) | highest survival rate ([2]; plates containing 6% trehalose, 14 days (FIG. 2B)) | embryos survived ([3]; MS medium with 1.5% (w/v) trehalose together with sucrose (1.5%), after one week of culture) | embryo appearance ([3]; MS medium with 1.5% trehalose together with 1.5% sucrose, after one week)
OC[C@H]1O[C@@](CO)(O[C@H]2O[C@H](CO)[C@@H](O)[C@H](O)[C@H]2O)[C@@H](O)[C@@H]1O [sucrose] | turned from light green to white and growth was arrested | did not improve embryo survival | turned from light green to white and growth was arrested | arrested growth and turned dark brown | none | – | – | – | – | – | –
OC[C@H]1O[C@H](O[C@H]2O[C@H](CO)[C@@H](O)[C@H](O)[C@H]2O)[C@H](O)[C@@H](O)[C@@H]1O [trehalose] | – | – | – | – | – | over 70% | over 90% | 80% | over 90% | Around 30% | turning light green
O=C(CO)[C@@H](O)[C@H](O)[C@H](O)CO [fructose] | turned from light green to white and growth was arrested | did not improve embryo survival | turned from light green to white and growth was arrested | – | – | – | – | – | – | – | –
O=C[C@H](O)[C@@H](O)[C@@H](O)[C@H](O)CO [galactose] | turned from light green to white and growth was arrested | did not improve embryo survival | turned from light green to white and growth was arrested | – | – | – | – | – | – | – | –
